From patent publication US20170087104A1, “MEDICAMENT” (AFT Pharmaceuticals Ltd., priority 2013, published 2017) come the findings set out here.

Data set [1] in a line: First crossover study: absorption of phenylephrine, PE HCl alone vs Maxigesic PE (28 adult subjects). It is filed as in vivo. As to conditions: human, 10 mg; phenylephrine in blood plasma, mean, oral tablets, n = 28 adult humans.
Data set [2] can be described thus: Third cross-over study: Maxiclear PE 2.5 (two tablets) vs Sudafed PE (6 adult subjects). It is filed as in vivo. As to conditions: human, oral, 10 mg; phenylephrine in plasma, mean, untransformed data, n = 6 adult humans.

Structures can show the parent of a compound that is named as a salt.

As usually defined, the Cmax is the maximum level reached in the sampled fluid or tissue. As a reminder, the Tmax is the time from dosing to the highest level. Regarding `CNC[C@H](O)c1cccc(O)c1` [10 mg phenylephrine hydrochloride, phenylephrine hydrochloride], in data set [1], the Cmax came out at 0.874 ng/mL and the Tmax was 42 min. Further, in data set [2], the maximum concentration (Cmax) was 1.13 ng/mL and the Tmax worked out at 42 min.
